Legend:
mice = conditions: mouse, in vivo
Method: (§1) Daily oral doses of compound 52 (up to 250 mg/kg/day) in PEG 400 were administered to both mice and monkeys for 28 consecutive days. Toxicity was evaluated based on mortality, clinical observations, body weights, food consumption, ophthalmological examination, hematology and serum chemistry, organ weights, gross and microscopic examinations. ECG, coagulation and urinalysis were also performed in the monkey study.

monkeys = conditions: oral doses up to 250 mg/kg
Method: as §1

[1] = Pharmacokinetics in human volunteers, single dose cohorts
[2] = tested on: H1a-luc cell line (genotype 1a replicon, unselected); test: Extent of resistance after selection, H1a-luc; assay type: cell-based, HCV; conditions: selecting conc. 0 nM
Method: (§2) Replicon cells (genotype 1a or 1b) were treated with various concentrations of compound 52 in the presence of G418. Treatment-emergent genotypic changes were identified by population sequencing of NS3 (both protease and helicase regions). The activity of compound 52 and other compounds was evaluated by NS5A western blot after selection or luciferase assay during and after selection.

[3] = target: T1, HCV NS3-4A Protease Genotype 1b (Hepatitis C virus genotype 1b, UniProt Q9WMX2); test: HCV protease assay, recombinant NS3-4A genotype 1b; assay type: biochemical; conditions: mean ± SD, 3 experiments
T1 construct: recombinant HCV NS3-4A proteases
Method: The compounds were tested at a variety of concentrations in assay buffer containing a final DMSO concentration of 5%. Reactions were allowed to proceed for 60 min at room temperature and fluorescence measurements were recorded with a Tecan Infinity Spectrofluorimeter. The IC50 values were determined from the percent inhibition versus concentration data using a sigmoidal non-linear regression analysis based on four parameters with Tecan Magellan software.
Compound 52 was tested against genotypes 1a, 1b, 2a, 3a, and 4a of recombinant HCV NS3-4A proteases, along with other cellular proteases.

1a replicon = test: HCV replicon luciferase assay, genotype 1a; assay type: cell-based
Method: Compound 52 was tested against genotypes 1a, 1b, and 2a in an HCV replicon assay as described in Example 2. Replicon cells (genotype 1a or 1b) were seeded onto 96-well plates, cultured for three days in the presence of the compound, and subject to a luciferase assay.

[4] = tested on: A-1a cell line (genotype 1a replicon selected with 10 nM, D168A); test: Extent of resistance after selection, A-1a; assay type: cell-based, HCV; conditions: selecting conc. 10 nM
Method: as §2

human CYP450 2D6 = target: T2, human CYP450 2D6 (Homo sapiens, UniProt P10635); test: CYP450 inhibition assay, 2D6; assay type: in vitro ADME
T2 construct: purchased BD Bioscience
Method: (§3) Compound 52 was incubated with human CYP450 cDNA-expressed isoenzymes according to the protocol (BD Bioscience). For CYP2C9, a luminogenic substrate was used with the P450-Glo™ kit. In addition, the effect of the compound on CYP2C9-mediated diclofenac metabolism was measured by LC-UV. The potential inhibitory effect of the compound on human UGT1A1 was examined using human liver microsomes and bilirubin as substrate. The metabolites (mono- and di-glucuronidated bilirubin) were measured by LC-UV.

[5] = tested on: ZlucB cell line (genotype 1b replicon selected with 25 nM compound 52, D168V); test: Extent of resistance after selection, luciferase assay, ZlucB; assay type: cell-based, HCV; conditions: selecting conc. 25 nM, EC50 resistant / EC50 wild-type
Method: as §2
Eight drug-resistance replicon cell lines were created by long-term culture of genotype 1b replicon cells with 10 or 25 nM of compound 52. NS3 (AAs 1-631) was sequenced at each passage.

[6] = tested on: genotype 1b luciferase-replicon NS3 R155Q
Method: (§4) The activity of compound 52 was evaluated against replicons bearing single protease inhibitor-resistance mutations as compared to its activity against the wild-type replicon. Mutations were introduced into a genotype 1b luciferase-replicon by site-directed mutagenesis. Compound activity was measured in cells transiently transfected with in vitro transcribed wild-type or mutant luciferase-replicon RNA by luciferase assay after 4-day treatment. Replication capacity was determined in untreated transfected cells by comparing the luciferase activity at 4 hrs and 4 days post-transfection.

[7] = tested on: genotype 1b luciferase-replicon NS3 Q80R
Method: as §4

[8] = tested on: genotype 1b luciferase-replicon NS3 T54A
Method: as §4

[9] = tested on: genotype 1b luciferase-replicon NS3 D168Y
Method: as §4

[10] = tested on: genotype 1b luciferase-replicon NS3 D168A
Method: as §4

[11] = tested on: genotype 1b luciferase-replicon NS3 A156S
Method: as §4

[12] = tested on: genotype 1b luciferase-replicon NS3 D168E
Method: as §4

[13] = tested on: genotype 1b luciferase-replicon NS3 R155K
Method: as §4

[14] = tested on: genotype 1b luciferase-replicon NS3 A156T
Method: as §4

[15] = tested on: genotype 1b luciferase-replicon NS3 D168V
Method: as §4

human CYP450 1A2 = target: T3, human CYP450 1A2 (Homo sapiens, UniProt P05177); test: CYP450 inhibition assay, 1A2; assay type: in vitro ADME
T3 construct: purchased BD Bioscience
Method: as §3

human UGT1A1 = target: T4, human UGT1A1 (Homo sapiens, UniProt P22309); test: UGT1A1 inhibition assay; assay type: in vitro ADME; conditions: human liver microsomes, bilirubin as substrate
T4 construct: examined using human liver microsomes and bilirubin as substrate; from tissue; host or cells: human liver microsomes
Method: as §3

Compound: COc1ccc2c(O[C@H]3CCN4C(=O)N(C)CCCC/C=C\[C@@H]5C[C@@]5(C(=O)NS(=O)(=O)C5(C)CC5)NC(=O)[C@@H]4C3)cc(-c3nc(C(F)(F)F)cs3)nc2c1C [Compound 52, 1-methyl-cyclopropanesulfonic acid{(Z)-(1S,4R,6S,18S)-18-[7-methoxy-8-methyl-2-(4-trifluoromethyl-thiazol-2-yl)-quinolin-4-yloxy]-13-methyl-2,14-dioxo-3,13,15-triaza-tricyclo[13.4.0.0*4,6*]nonadec-7-ene-4-carbonyl}amide]
- tolerability in 4-week GLP toxicology study (mice): well tolerated
- tolerability in 4-week GLP toxicology study (monkeys): well tolerated
- total and trough exposure, HCV-infected patients compared to healthy volunteers ([1]; 2 HCV-infected patients, comparable Cmax): 2 fold
- enhancement of overall plasma exposure by food ([1]; food compared to fasting state): approximately 2 fold
- C24 hr ([1]; single dose 100 mg, human volunteers): 0.019 ± 0.009 µg/mL
- C24 hr ([1]; single dose 200 mg, HCV patients, N = 2): 0.131 µg/mL
- C24 hr ([1]; single dose 200 mg, human volunteers): 0.053 ± 0.026 µg/mL
- C24 hr ([1]; single dose 400 mg Fasted, human volunteers): 0.054 ± 0.028 µg/mL
- C24 hr ([1]; single dose 400 mg, human volunteers): 0.089 ± 0.016 µg/mL
- Fold-Change [2]: 1
- IC50 [3]: 1.2 ± 0.1 nM
- Selectivity Index (1a replicon): >22,647
- EC50 (1a replicon; Hepatitis C virus, 72 h, three days, luciferase assay): 3.4 ± 1.1 nM
- Fold-Change [4]: 589 ± 442
- IC50 (human CYP450 2D6): ≥ 10000 nM
- Fold-Change [5]: 1037 ± 144
- Fold-Change [6]: 0.6 ± 0.09
- Fold-Change [7]: 5.7 ± 0.9
- Fold-Change [8]: 1.4 ± 0.2
- Fold-Change [9]: 1107 ± 513
- Fold-Change [10]: 575 ± 210
- Fold-Change [11]: 0.5 ± 0.1
- Fold-Change [12]: 41.4 ± 17.8
- Fold-Change [13]: 9.0 ± 1.7
- Fold-Change [14]: 27.1 ± 9.5
- Fold-Change [15]: 4587 ± 1003
- IC50 (human CYP450 1A2): ≥ 10000 nM
- IC50 (human UGT1A1): ≥ 10000 nM

— patent US8993595B2, “Macrocyclic serine protease inhibitors” (priority 2009, dated 2015)
